The values below come from patent publication US8735364B2, “Antisense modulation of apolipoprotein B expression” (Genzyme Corporation, priority 2001, dated 2014).

Common to all, as to format: in vivo, mouse
Data set [1] is described as follows: Body, spleen, liver and fat pad weight, high fat fed mice, 6 week study. Conditions: 20 mg/kg daily, compared to saline-treated controls. Here is the method: (§1) Male C57BL/6 mice (n=8) receiving a high fat diet (60% kcal fat) were evaluated over the course of 6 weeks for the effects of treatment with the antisense oligonucleotide, ISIS 147764. Control animals received saline treatment (50 mg/kg). A subset of animals received a daily oral dose (20 mg/kg) atorvastatin calcium (Lipitor®, Pfizer Inc.). All mice, except atorvastatin-treated animals, were dosed intraperitoneally every three days (twice a week), after fasting overnight, with 5, 25, 50 mg/kg ISIS 147764 (SEQ ID No: 109) or saline (50 mg/kg) for six weeks. Serum cholesterol and lipoproteins were analyzed at 0, 2 and 6 week interim timepoints. At study termination, animals were sacrificed 48 hours after the final injections and evaluated for levels of target mRNA levels in liver, cholesterol, lipoprotein, triglyceride, liver enzyme (AST and ALT) and serum glucose levels as well as body, liver, spleen and fat pad weights.
Male C57BL/6 mice (n=8) receiving a high fat diet (60% kcal fat) were evaluated over the course of 6 weeks for the effects of ISIS 147764 on body, spleen, liver and fat pad weight. Control animals received saline treatment (50 mg/kg). Mice were dosed intraperitoneally every three days (twice a week), after fasting overnight, with 5, 25, 50 mg/kg ISIS 147764 (SEQ ID No: 109) or saline (50 mg/kg) for six weeks.
At study termination, animals were sacrificed 48 hours after the final injections and body, spleen, liver and fat pad weights were measured. Values are expressed as percent change in body weight or ogan weight compared to the saline-treated control animals. Data from mice treated with atorvastatin at a daily dose of 20 mg/kg are also shown in the table Negative values indicated a decrease in weight.

Data set [2] is described as follows: Liver enzyme levels in ApoE knockout mice. The text has this:
Female ApoE knockout mice ranged in age from 5 to 7 weeks and were placed on a normal diet for 2 weeks before study initiation. ApoE knockout mice were then fed ad libitum a 60% fat diet, with 0.15% added cholesterol to induce dyslipidemia and obesity. […]
At study termination and forty eight hours after the final injections, animals were sacrificed and evaluated for target mRNA levels in liver by RT-PCR methods verified by Northern Blot analysis, glucose levels, cholesterol and lipid levels by HPLC separation methods and triglyceride and liver enzyme levels (perfomed by LabCorp Preclinical Services; San Diego, Calif.). Data are normalized to saline controls.

Data set [3] is described as follows: Serum AST and ALT levels, high fat fed mice, 6 week study. The note with it: daily oral dose of 20 mg/kg. Here is the method: as §1
Male C57BL/6 mice (n=8) receiving a high fat diet (60% kcal fat) were evaluated over the course of 6 weeks for the effects of ISIS 147764 on liver enzyme (AST and ALT) levels. Control animals received saline treatment (50 mg/kg). Mice were dosed intraperitoneally every three days (twice a week), after fasting overnight, with 5, 25, 50 mg/kg ISIS 147764 (SEQ ID No: 109) or saline (50 mg/kg) for six weeks.
Values in the table are expressed as IU/L. Increased levels of the liver enzymes ALT and AST indicate toxicity and liver damage.

As to `CC(C)c1c(C(=O)Nc2ccccc2)c(-c2ccccc2)c(-c2ccc(F)cc2)n1CC[C@@H](O)C[C@@H](O)CC(=O)O` [atorvastatin, atorvastatin calcium, reference compound], in data set [1], the “Fat pad weight Percent Change” value is reported as 7%, the “Liver weight Percent Change” value is 15%, the “Spleen weight Percent Change” value was 10% and the “Total Body Wt. Percent Change” value is reported as 1%. Moreover, the “Liver Enzyme Levels ALT” value in data set [2] (20 mg/kg daily, Control 56) is 76 IU/L. Moreover, the “Liver Enzyme Levels AST” value in data set [2] (Control 55) turned out to be 75 IU/L. Further, the AST levels in data set [3] (printed in the ALT paragraph) was 40 IU/L. In addition, the AST levels in data set [3] (saline control 65 IU/L) is 85 IU/L.
